We go through seven compounds from ChEMBL document CHEMBL5143519, “Exploring disordered loops in DprE1 provides a functional site to combat drug-resistance in Mycobacterium strains” (Eur J Med Chem, 2022).

Molecules are shown by their SMILES. Converted amounts (≈) assume the structure as drawn.

The test system of test [1] is Mycobacterium tuberculosis. As to the kind of experiment: Antimycobacterial activity against rifampin resistant Mycobacterium tuberculosis H37Rv assessed as reduction in bacterial colony forming units at 20 times MIC concentration measured after 21 days by time kill assay. Conditions: time 21 day. Type of test: functional.
The test system of test [2] is Mycobacterium tuberculosis. As to the kind of experiment: Antimycobacterial activity against rifampin resistant Mycobacterium tuberculosis H37Rv assessed as inhibition of bacterial growth incubated for 7 days by microplate alamar blue assay. Type of test: functional. Conditions: 168 h, time 7 day.
Test [3] can be described thus: Inhibition of Mycobacterium tuberculosis DprE1 C387A mutant expressed in Escherichia coli BL21 DE3 assessed as formation of resorufin using FPR as substrate incubated for 10 mins by Amplex Red dye microplate assay.
The nature of test [4]: Inhibition of Mycobacterium tuberculosis DprE1 C387S mutant expressed in Escherichia coli BL21 DE3 assessed as formation of resorufin using FPR as substrate incubated for 10 mins by Amplex Red dye microplate assay.
The test system of test [5] is Mycobacterium tuberculosis. As to the kind of experiment: Antimycobacterial activity against multidrug-resistant Mycobacterium tuberculosis clinical isolate HD4 assessed as inhibition of bacterial growth incubated for 7 days by microplate alamar blue assay. Type of test: functional. The settings on record: Clinical isolate HD4, 168 h, time 7 day.
The test system of test [6] is Mycobacterium tuberculosis. As to the kind of experiment: Antimycobacterial activity against multidrug-resistant Mycobacterium tuberculosis clinical isolate HD1 assessed as inhibition of bacterial growth incubated for 7 days by microplate alamar blue assay. In kind it is functional. Conditions: Clinical isolate HD1, 168 h, time 7 day. For orientation: The colour change of resazurin is a common sign of viable cells or microbes.

In test [7] the test system is Mycobacterium tuberculosis. In words: Antimycobacterial activity against Mycobacterium tuberculosis DprE1 C387S assessed as inhibition of bacterial growth incubated for 7 days by microplate alamar blue assay. In kind it is functional. Conditions: time 7 day.
Test [8] can be described thus: Inhibition of Mycobacterium tuberculosis DprE1 K418A mutant expressed in Escherichia coli BL21 DE3 assessed as formation of resorufin using FPR as substrate incubated for 10 mins by Amplex Red dye microplate assay.
Test [9] has as its system Mycobacterium tuberculosis. As to the kind of experiment: Antimycobacterial activity against multidrug-resistant Mycobacterium tuberculosis clinical isolate HD2 assessed as inhibition of bacterial growth incubated for 7 days by microplate alamar blue assay. Type of test: functional. The settings on record: Clinical isolate HD2, 168 h, time 7 day.
For test [10], the system named is Mycobacterium tuberculosis. As to the kind of experiment: Antimycobacterial activity against multidrug-resistant Mycobacterium tuberculosis clinical isolate HD3 assessed as inhibition of bacterial growth incubated for 7 days by microplate alamar blue assay. Type of test: functional. Conditions: Clinical isolate HD3, 168 h, time 7 day.
Test [11] can be described thus: Inhibition of Mycobacterium tuberculosis DprE1 Y314A mutant expressed in Escherichia coli BL21 DE3 assessed as formation of resorufin using FPR as substrate incubated for 10 mins by Amplex Red dye microplate assay.
The test system of test [12] is Mycobacterium tuberculosis. In words: Antimycobacterial activity against multidrug-resistant Mycobacterium tuberculosis clinical isolate HD5 assessed as inhibition of bacterial growth incubated for 7 days by microplate alamar blue assay. Type of test: functional. Conditions: Clinical isolate HD5, 168 h, time 7 day.

For the compound `CCOC(=O)NC(=O)c1ccsc1NC(=O)c1nc2ccccc2s1`, the Activity in [1] stood at 3.5 log10CFU/ml. The MIC in test [2] was found to be 3.32 µM (≈ 1.25 µg/mL); in [5] it was 8.33 µM (≈ 3.13 µg/mL); in test [6], 4.15 µM (≈ 1.56 µg/mL); in test [7], 6.65 µM (≈ 2.5 µg/mL); in test [9] it was 8.33 µM (≈ 3.13 µg/mL); in [10] it was 2.07 µM (≈ 0.777 µg/mL). The MIC in test [12] came out at 8.33 µM (≈ 3.13 µg/mL). Besides, the IC50 in test [3] came to 44 µM; in [4], 5.79 µM; in test [8], 65 µM; in test [11] it was 0.11 µM.

For `O=C(NC(=O)c1ccsc1NC(=O)c1nc2ccccc2s1)OCC1CC1`, the Activity in test [1] is reported as 3.5 log10CFU/ml. For the same compound, the MIC in test [2] was found to be 1.57 µM (≈ 0.63 µg/mL); in test [5], 1.94 µM (≈ 0.779 µg/mL); in [6], 1.94 µM (≈ 0.779 µg/mL); in test [7], 1.57 µM (≈ 0.63 µg/mL); in test [9], 3.88 µM (≈ 1.56 µg/mL); in [10] it was 0.97 µM (≈ 0.389 µg/mL). In addition, the MIC in test [12] was 1.94 µM (≈ 0.779 µg/mL). The IC50 stood at 0.069 µM in [3], 0.059 µM in test [4], 8.93 µM in test [8] and 0.029 µM in test [11].

With `O=C(NC(=O)c1ccsc1NC(=O)c1nc2ccccc2s1)OCC1CCC1`, the MIC in [2] turned out to be 6.01 µM (≈ 2.5 µg/mL); in test [5], 3.76 µM (≈ 1.56 µg/mL); in test [6] it was 1.88 µM (≈ 0.781 µg/mL); in [9] it was 3.76 µM (≈ 1.56 µg/mL); in [10] it was 1.88 µM (≈ 0.781 µg/mL); in [12] it was 3.76 µM (≈ 1.56 µg/mL).

For `CC(=O)c1ccc(C(=O)Nc2sccc2C(=O)NC(=O)OCC2CC2)cc1`, the IC50 in test [3] was 3.33 µM; in test [4], 3.98 µM.

Turning to `COc1nc2ccc(Br)cc2cc1[C@@H](c1ccccc1)[C@@](O)(CCN(C)C)c1cccc2ccccc12` [BEDAQUILINE], the MIC in test [5] came to 0.58 µM (≈ 0.322 µg/mL); in [6] it was 0.07 µM (≈ 0.0389 µg/mL); in test [9], 0.29 µM (≈ 0.161 µg/mL); in test [10], 0.14 µM (≈ 0.0778 µg/mL); in [12], 0.07 µM (≈ 0.0389 µg/mL).

`NNC(=O)c1ccncc1` [ISONIAZID]: the minimal inhibitory concentration (MIC) in [5] stood at 18.2 µM (≈ 2.5 µg/mL); in [6] it was 18.2 µM (≈ 2.5 µg/mL); in test [9] it was 36.5 µM (≈ 5 µg/mL); in test [10] it was 9.11 µM (≈ 1.25 µg/mL); in test [12], 36.5 µM (≈ 5 µg/mL).

As to `CO[C@H]1/C=C/O[C@@]2(C)Oc3c(C)c(O)c4c(O)c(c(/C=N/N5CCN(C)CC5)c(O)c4c3C2=O)NC(=O)/C(C)=C\C=C\[C@H](C)[C@H](O)[C@@H](C)[C@@H](O)[C@@H](C)[C@H](OC(C)=O)[C@@H]1C` [RIFAMPIN], the minimal inhibitory concentration (MIC) in test [2] amounted to 1.13 µM (≈ 0.93 µg/mL); in test [5], 1.9 µM (≈ 1.56 µg/mL); in [6], 1.9 µM (≈ 1.56 µg/mL); in test [7] it was 0.35 µM (≈ 0.288 µg/mL); in [9], 3.82 µM (≈ 3.14 µg/mL); in test [10], 0.95 µM (≈ 0.782 µg/mL). For the same compound, the MIC in test [12] is 3.82 µM (≈ 3.14 µg/mL).

By MIC is commonly meant the smallest concentration in the dilution series that meets the test's criterion for growth inhibition. Usually IC50 stands for the concentration needed to halve the response being measured.
